Source: PMC10817531, “Chlorinated Enyne Fatty Acid Amides from a Marine Cyanobacterium: Discovery of Taveuniamides L-M and Pharmacological Characterization of Taveuniamide F as a GPCR Antagonist with CNR1 Selectivity” (Marine Drugs, 2023)

Legend:
Format in all cases: cell-based
CNR1 = molecular target: T1, CNR1 (Homo sapiens, UniProt P21554); assay: cAMP Hunter eXpress CNR1 (CB1) CHO-K1 GPCR assay
T1 construct: host or cells: CHO-K1
Procedure: The experiments (agonist and antagonist mode) were carried out by DiscoveRx Corporation (Fremont, CA, USA). Human CNR1 in stably transfected CHO-K1 cells were seeded in a total volume of 20 μL into white-walled, 384-well microplates and incubated at 37 °C overnight. Before testing, cell plating media was exchanged with 10 μL of assay buffer (HBSS + 10 mM HEPES).
As described in catalog ref. (86-0007P-2277AG) for the agonist mode, intermediate dilution of sample stocks was performed to generate 4× samples in assay buffer. A total of 5 μL of 4× sample and 5 μL of 4× forskolin were added to cells and incubated at 37 °C for 30 min. The final assay vehicle concentration was 1%. The results are expressed as a percent efficacy relative to the maximum response of the control ligand.
As described in catalog ref. (86-0007P-2277AN) for the antagonist mode, intermediate dilution of sample stocks was performed to generate 4× samples in assay buffer. A total of 5 μL of 4X sample was added to cells and incubated at 37 °C for 30 min, and 5uL of 4× EC80 of CP55940 in 4× forskolin reagent was added and cells incubated for 37 °C for 30 min. The final assay vehicle concentration was 1%. The results are expressed as a percent inhibition of the control ligand. The assays were performed at 10-point concentrations of 4 using 3-fold serial dilutions in duplicate, where the highest concentration was 50 µM.

MC4R = molecular target: T2, MC4R (Homo sapiens, UniProt P32245); assay: PathHunter β-arrestin GpcrMAX assay
T2 construct: purchased DiscoveRx (Eurofins) gpcrMAX PathHunter β-arrestin panel
Procedure, shortened: (§1)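 β-arrestin enzyme fragment complementation (PathHunter) readout; compound at 20 µM, run in both agonist and antagonist mode.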

PRLHR = molecular target: T3, PRLHR (Homo sapiens, UniProt P49683); assay: PathHunter β-arrestin GpcrMAX assay
T3 construct: purchased DiscoveRx (Eurofins) gpcrMAX PathHunter β-arrestin panel
T3 sequence (P49683 whole entry): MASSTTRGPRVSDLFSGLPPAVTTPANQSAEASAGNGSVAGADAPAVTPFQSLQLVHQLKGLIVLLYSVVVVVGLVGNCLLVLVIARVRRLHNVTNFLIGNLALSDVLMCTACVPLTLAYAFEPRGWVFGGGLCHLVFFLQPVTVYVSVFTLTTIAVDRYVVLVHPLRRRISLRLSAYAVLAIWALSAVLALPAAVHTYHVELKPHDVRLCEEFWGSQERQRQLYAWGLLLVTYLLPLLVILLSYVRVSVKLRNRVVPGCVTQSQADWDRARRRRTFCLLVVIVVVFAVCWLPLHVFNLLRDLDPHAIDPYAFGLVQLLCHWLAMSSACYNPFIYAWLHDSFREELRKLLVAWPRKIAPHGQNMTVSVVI
Procedure, shortened: as §1

MC5R = molecular target: T4, MC5R (Homo sapiens, UniProt P33032); assay: PathHunter β-arrestin GpcrMAX assay
T4 construct: purchased DiscoveRx (Eurofins) gpcrMAX PathHunter β-arrestin panel
Procedure, shortened: as §1

UTR2 = molecular target: T5, UTR2 (Homo sapiens, UniProt Q9UKP6); assay: PathHunter β-arrestin GpcrMAX assay
T5 construct: purchased DiscoveRx (Eurofins) gpcrMAX PathHunter β-arrestin panel
Procedure, shortened: as §1

NPBWR1 = molecular target: T6, NPBWR1 (Homo sapiens, UniProt P48145); assay: PathHunter β-arrestin GpcrMAX assay
T6 construct: purchased DiscoveRx (Eurofins) gpcrMAX PathHunter β-arrestin panel
Procedure, shortened: as §1

P2RY2 = molecular target: T7, P2RY2 (Homo sapiens, UniProt P41231); assay: PathHunter β-arrestin GpcrMAX assay
T7 construct: purchased DiscoveRx (Eurofins) gpcrMAX PathHunter β-arrestin panel
Procedure, shortened: as §1

EBI2 = molecular target: T8, EBI2 (Homo sapiens, UniProt P32249); assay: PathHunter β-arrestin GpcrMAX assay
T8 construct: purchased DiscoveRx (Eurofins) gpcrMAX PathHunter β-arrestin panel
Procedure, shortened: as §1

FPR1 = molecular target: T9, FPR1 (Homo sapiens, UniProt P21462); assay: PathHunter β-arrestin GpcrMAX assay
T9 construct: purchased DiscoveRx (Eurofins) gpcrMAX PathHunter β-arrestin panel
Procedure, shortened: as §1

GPR92 = molecular target: T10, GPR92 (Homo sapiens, UniProt Q9H1C0); assay: PathHunter β-arrestin GpcrMAX assay
T10 construct: purchased DiscoveRx (Eurofins) gpcrMAX PathHunter β-arrestin panel
Procedure, shortened: as §1

DRD3 = molecular target: T11, DRD3 (Homo sapiens, UniProt P35462); assay: PathHunter β-arrestin GpcrMAX assay
T11 construct: purchased DiscoveRx (Eurofins) gpcrMAX PathHunter β-arrestin panel
Procedure, shortened: as §1

C5aR1 = C5aR1 (Homo sapiens, UniProt P21730); assay: PathHunter β-arrestin GpcrMAX assay
Procedure, shortened: as §1

ADORA3 = molecular target: T12, ADORA3 (Homo sapiens, UniProt P0DMS8); assay: PathHunter β-arrestin GpcrMAX assay
T12 construct: purchased DiscoveRx (Eurofins) gpcrMAX PathHunter β-arrestin panel
Procedure, shortened: as §1

HCRTR2 = molecular target: T13, HCRTR2 (Homo sapiens, UniProt O43614); assay: PathHunter β-arrestin GpcrMAX assay
T13 construct: purchased DiscoveRx (Eurofins) gpcrMAX PathHunter β-arrestin panel
T13 sequence (O43614 whole entry): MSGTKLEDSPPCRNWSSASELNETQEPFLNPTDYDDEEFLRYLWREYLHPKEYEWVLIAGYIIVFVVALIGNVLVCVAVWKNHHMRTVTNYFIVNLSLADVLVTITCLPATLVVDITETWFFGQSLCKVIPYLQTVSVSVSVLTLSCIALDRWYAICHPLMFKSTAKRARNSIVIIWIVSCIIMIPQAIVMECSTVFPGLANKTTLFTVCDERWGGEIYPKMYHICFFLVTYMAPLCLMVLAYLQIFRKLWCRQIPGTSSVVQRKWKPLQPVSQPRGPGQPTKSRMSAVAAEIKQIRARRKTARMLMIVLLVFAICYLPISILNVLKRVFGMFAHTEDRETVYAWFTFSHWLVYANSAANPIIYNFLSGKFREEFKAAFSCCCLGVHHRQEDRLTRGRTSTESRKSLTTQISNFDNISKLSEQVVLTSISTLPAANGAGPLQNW
Procedure, shortened: as §1

CXCR3 = molecular target: T14, CXCR3 (Homo sapiens, UniProt P49682); assay: PathHunter β-arrestin GpcrMAX assay
T14 construct: purchased DiscoveRx (Eurofins) gpcrMAX PathHunter β-arrestin panel
T14 sequence (P49682 whole entry): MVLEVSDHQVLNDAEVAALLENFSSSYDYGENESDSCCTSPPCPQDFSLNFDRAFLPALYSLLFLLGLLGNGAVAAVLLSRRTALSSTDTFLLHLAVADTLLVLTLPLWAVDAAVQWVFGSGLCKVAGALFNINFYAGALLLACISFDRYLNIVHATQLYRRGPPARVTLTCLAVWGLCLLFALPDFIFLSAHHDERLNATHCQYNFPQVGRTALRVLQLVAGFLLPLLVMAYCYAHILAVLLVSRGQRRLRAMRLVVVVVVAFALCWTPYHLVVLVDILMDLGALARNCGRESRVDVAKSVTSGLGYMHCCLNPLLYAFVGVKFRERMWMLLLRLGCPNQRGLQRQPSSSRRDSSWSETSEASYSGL
Procedure, shortened: as §1

NTSR1 = molecular target: T15, NTSR1 (Homo sapiens, UniProt P30989); assay: PathHunter β-arrestin GpcrMAX assay
T15 construct: purchased DiscoveRx (Eurofins) gpcrMAX PathHunter β-arrestin panel
T15 sequence (P30989 whole entry): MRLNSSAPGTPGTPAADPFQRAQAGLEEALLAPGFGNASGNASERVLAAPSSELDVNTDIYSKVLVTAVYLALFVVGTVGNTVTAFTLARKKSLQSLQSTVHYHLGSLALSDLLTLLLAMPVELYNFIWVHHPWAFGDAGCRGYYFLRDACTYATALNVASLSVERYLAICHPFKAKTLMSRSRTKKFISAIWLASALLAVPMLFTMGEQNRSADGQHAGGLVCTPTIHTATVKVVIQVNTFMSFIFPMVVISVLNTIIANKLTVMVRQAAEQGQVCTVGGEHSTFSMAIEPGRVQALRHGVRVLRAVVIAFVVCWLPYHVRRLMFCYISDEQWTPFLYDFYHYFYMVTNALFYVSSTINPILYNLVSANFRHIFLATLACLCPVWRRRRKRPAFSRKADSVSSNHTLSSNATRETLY
Procedure, shortened: as §1

CALCRL-RAMP2 = CALCRL-RAMP2 (Homo sapiens, UniProt O60895+Q16602); assay: PathHunter β-arrestin GpcrMAX assay
Procedure, shortened: as §1

OXTR = molecular target: T16, OXTR (Homo sapiens, UniProt P30559); assay: PathHunter β-arrestin GpcrMAX assay
T16 construct: purchased DiscoveRx (Eurofins) gpcrMAX PathHunter β-arrestin panel
T16 sequence (P30559 whole entry): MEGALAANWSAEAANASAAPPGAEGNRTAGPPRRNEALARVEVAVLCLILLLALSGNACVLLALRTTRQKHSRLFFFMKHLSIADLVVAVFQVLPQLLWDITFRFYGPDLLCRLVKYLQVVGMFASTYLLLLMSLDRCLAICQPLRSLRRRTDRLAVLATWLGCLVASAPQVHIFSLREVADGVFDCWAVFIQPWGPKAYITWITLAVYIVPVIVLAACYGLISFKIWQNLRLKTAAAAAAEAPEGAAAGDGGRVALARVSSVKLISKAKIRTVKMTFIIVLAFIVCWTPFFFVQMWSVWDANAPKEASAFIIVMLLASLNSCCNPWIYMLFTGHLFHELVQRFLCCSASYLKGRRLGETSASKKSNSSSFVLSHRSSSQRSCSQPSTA
Procedure, shortened: as §1

NMU1R = molecular target: T17, NMU1R (Homo sapiens, UniProt Q9HB89); assay: PathHunter β-arrestin GpcrMAX assay
T17 construct: purchased DiscoveRx (Eurofins) gpcrMAX PathHunter β-arrestin panel
Procedure, shortened: as §1

CXCR2 = molecular target: T18, CXCR2 (Homo sapiens, UniProt P25025); assay: PathHunter β-arrestin GpcrMAX assay
T18 construct: purchased DiscoveRx (Eurofins) gpcrMAX PathHunter β-arrestin panel
T18 sequence (P25025 whole entry): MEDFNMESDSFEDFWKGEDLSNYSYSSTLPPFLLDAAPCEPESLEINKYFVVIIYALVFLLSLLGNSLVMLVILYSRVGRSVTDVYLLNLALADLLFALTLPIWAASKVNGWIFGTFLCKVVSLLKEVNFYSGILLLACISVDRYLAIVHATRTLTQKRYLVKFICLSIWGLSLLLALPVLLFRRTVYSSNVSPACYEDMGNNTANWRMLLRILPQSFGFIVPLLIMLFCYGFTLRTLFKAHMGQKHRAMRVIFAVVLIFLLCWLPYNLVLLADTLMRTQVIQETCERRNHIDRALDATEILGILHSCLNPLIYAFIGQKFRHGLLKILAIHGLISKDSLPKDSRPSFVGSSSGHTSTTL
Procedure, shortened: as §1

DRD1 = molecular target: T19, DRD1 (Homo sapiens, UniProt P21728); assay: PathHunter β-arrestin GpcrMAX assay
T19 construct: purchased DiscoveRx (Eurofins) gpcrMAX PathHunter β-arrestin panel
T19 sequence (P21728 whole entry): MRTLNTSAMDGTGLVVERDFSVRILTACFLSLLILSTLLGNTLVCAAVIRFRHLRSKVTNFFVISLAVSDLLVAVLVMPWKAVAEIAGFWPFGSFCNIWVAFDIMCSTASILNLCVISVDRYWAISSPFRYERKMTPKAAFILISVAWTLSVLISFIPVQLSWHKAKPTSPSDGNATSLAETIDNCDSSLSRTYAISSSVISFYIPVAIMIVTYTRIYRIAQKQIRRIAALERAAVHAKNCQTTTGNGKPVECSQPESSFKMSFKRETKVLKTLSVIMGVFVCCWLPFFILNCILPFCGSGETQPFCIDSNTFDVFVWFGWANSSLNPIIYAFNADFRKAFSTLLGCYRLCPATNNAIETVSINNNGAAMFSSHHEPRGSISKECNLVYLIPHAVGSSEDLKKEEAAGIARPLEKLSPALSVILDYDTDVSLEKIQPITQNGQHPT
Procedure, shortened: as §1

GLP2R = molecular target: T20, GLP2R (Homo sapiens, UniProt O95838); assay: PathHunter β-arrestin GpcrMAX assay
T20 construct: purchased DiscoveRx (Eurofins) gpcrMAX PathHunter β-arrestin panel
T20 sequence (O95838 whole entry): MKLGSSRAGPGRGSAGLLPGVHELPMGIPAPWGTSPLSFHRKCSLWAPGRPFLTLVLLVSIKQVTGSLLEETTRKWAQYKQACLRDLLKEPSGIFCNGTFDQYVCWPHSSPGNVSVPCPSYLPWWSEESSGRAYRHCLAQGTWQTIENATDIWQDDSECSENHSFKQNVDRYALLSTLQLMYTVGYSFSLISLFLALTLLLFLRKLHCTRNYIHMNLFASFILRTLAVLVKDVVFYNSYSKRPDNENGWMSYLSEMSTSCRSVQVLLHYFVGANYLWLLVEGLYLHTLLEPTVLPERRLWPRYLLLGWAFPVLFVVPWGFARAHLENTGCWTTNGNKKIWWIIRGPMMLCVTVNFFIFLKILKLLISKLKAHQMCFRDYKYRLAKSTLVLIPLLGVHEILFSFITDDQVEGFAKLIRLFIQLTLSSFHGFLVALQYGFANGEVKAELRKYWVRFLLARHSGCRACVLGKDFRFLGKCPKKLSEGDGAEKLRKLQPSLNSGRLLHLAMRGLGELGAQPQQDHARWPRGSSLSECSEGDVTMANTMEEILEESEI
Procedure, shortened: as §1

AVPR2 = AVPR2 (Homo sapiens, UniProt P30518); assay: PathHunter β-arrestin GpcrMAX assay
Procedure, shortened: as §1

KISS1R = molecular target: T21, KISS1R (Homo sapiens, UniProt Q969F8); assay: PathHunter β-arrestin GpcrMAX assay
T21 construct: purchased DiscoveRx (Eurofins) gpcrMAX PathHunter β-arrestin panel
Procedure, shortened: as §1

SSTR1 = molecular target: T22, SSTR1 (Homo sapiens, UniProt P30872); assay: PathHunter β-arrestin GpcrMAX assay
T22 construct: purchased DiscoveRx (Eurofins) gpcrMAX PathHunter β-arrestin panel
T22 sequence (P30872 whole entry): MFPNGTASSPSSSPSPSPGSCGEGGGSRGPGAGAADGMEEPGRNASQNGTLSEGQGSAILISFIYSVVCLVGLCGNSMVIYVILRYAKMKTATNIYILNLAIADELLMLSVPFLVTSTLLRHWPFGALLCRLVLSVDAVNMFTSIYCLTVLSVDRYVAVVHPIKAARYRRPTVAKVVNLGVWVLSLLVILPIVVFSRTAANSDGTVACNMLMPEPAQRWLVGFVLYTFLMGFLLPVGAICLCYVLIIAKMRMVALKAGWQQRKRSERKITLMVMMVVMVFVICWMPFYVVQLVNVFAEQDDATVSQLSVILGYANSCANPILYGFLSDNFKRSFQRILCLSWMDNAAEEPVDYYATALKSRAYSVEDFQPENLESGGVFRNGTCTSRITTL
Procedure, shortened: as §1

CALCR = CALCR (Homo sapiens, UniProt P30988); assay: PathHunter β-arrestin GpcrMAX assay
Procedure, shortened: as §1

MC3R = molecular target: T23, MC3R (Homo sapiens, UniProt P41968); assay: PathHunter β-arrestin GpcrMAX assay
T23 construct: purchased DiscoveRx (Eurofins) gpcrMAX PathHunter β-arrestin panel
Procedure, shortened: as §1

CCR6 = molecular target: T24, CCR6 (Homo sapiens, UniProt P51684); assay: PathHunter β-arrestin GpcrMAX assay
T24 construct: purchased DiscoveRx (Eurofins) gpcrMAX PathHunter β-arrestin panel
T24 sequence (P51684 whole entry): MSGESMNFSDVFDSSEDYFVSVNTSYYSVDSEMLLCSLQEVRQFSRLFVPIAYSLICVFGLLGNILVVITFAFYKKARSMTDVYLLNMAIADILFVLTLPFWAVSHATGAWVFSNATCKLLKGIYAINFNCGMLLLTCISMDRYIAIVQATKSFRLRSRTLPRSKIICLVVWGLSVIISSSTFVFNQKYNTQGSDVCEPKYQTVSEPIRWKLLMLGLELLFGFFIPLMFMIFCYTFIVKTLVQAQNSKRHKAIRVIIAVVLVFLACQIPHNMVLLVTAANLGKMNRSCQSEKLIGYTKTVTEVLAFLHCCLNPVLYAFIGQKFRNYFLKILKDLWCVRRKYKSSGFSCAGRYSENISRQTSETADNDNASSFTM
Procedure, shortened: as §1

MCHR2 = molecular target: T25, MCHR2 (Homo sapiens, UniProt Q969V1); assay: PathHunter β-arrestin GpcrMAX assay
T25 construct: purchased DiscoveRx (Eurofins) gpcrMAX PathHunter β-arrestin panel
Procedure, shortened: as §1

BDKRB1 = BDKRB1 (Homo sapiens, UniProt P46663); assay: PathHunter β-arrestin GpcrMAX assay
BDKRB1, sequence (P46663 whole entry): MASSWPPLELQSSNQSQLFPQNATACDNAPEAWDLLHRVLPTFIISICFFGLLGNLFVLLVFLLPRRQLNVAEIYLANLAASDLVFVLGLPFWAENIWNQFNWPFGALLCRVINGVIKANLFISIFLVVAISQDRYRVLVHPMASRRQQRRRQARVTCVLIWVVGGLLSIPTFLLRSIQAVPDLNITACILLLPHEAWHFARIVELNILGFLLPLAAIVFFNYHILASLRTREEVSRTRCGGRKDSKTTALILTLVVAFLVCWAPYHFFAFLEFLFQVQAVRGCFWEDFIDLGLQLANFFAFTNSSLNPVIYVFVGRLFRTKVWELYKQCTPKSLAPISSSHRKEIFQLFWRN
Procedure, shortened: as §1

CHRM2 = molecular target: T26, CHRM2 (Homo sapiens, UniProt P08172); assay: PathHunter β-arrestin GpcrMAX assay
T26 construct: purchased DiscoveRx (Eurofins) gpcrMAX PathHunter β-arrestin panel
Procedure, shortened: as §1

T1 sequence (P21554 whole entry): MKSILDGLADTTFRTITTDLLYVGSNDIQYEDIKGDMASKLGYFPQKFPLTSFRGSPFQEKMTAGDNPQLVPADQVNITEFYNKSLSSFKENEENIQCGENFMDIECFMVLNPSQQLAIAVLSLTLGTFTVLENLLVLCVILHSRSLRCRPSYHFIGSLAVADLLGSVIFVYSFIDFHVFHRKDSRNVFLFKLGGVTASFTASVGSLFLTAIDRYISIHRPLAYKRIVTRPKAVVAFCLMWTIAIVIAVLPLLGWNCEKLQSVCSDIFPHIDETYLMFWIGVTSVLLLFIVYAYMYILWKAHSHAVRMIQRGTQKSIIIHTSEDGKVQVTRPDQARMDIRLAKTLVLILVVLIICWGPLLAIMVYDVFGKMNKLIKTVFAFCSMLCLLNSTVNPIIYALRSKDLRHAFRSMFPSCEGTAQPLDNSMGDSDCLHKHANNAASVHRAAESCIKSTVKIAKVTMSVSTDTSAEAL

CC(=O)N[C@@H](CCCC#C/C=C/Cl)CCCCCCC(Cl)Cl [Compound 4, taveuniamide F]
mode of activity in CNR1 cAMP functional assay (CNR1; agonist and antagonist mode): antagonist/inverse agonist
IC50 (CNR1; antagonist mode, EC80 of CP55940, forskolin, CHO-K1 cells, read-out: IC50, inhibition of CNR1-agonist-induced cAMP downregulation): 21 µM
inhibition at 20 µM (MC4R): 49.1%
inhibition at 20 µM (PRLHR): 46.6%
inhibition at 20 µM (MC5R): 39.8%
inhibition at 20 µM (UTR2): 17.7%
inhibition at 20 µM (NPBWR1): -12.1%
inhibition at 20 µM (P2RY2): -1.1%
inhibition at 20 µM (EBI2): 18%
inhibition at 20 µM (FPR1): -4.7%
inhibition at 20 µM (GPR92): 56.5%
inhibition at 20 µM (DRD3): 9.6%
inhibition at 20 µM (C5aR1): 1.4%
inhibition at 20 µM (ADORA3): 1%
inhibition at 20 µM (HCRTR2): 11.6%
inhibition at 20 µM (CXCR3): 4.6%
inhibition at 20 µM (NTSR1): 18.8%
inhibition at 20 µM (CALCRL-RAMP2): 13.6%
inhibition at 20 µM (OXTR): 34.2%
inhibition at 20 µM (NMU1R): 30.1%
inhibition at 20 µM (CXCR2): 20.5%
inhibition at 20 µM (DRD1): 18.6%
inhibition at 20 µM (GLP2R): 20.4%
inhibition at 20 µM (AVPR2): 14.4%
inhibition at 20 µM (KISS1R): 31.5%
inhibition at 20 µM (SSTR1): 38.2%
inhibition at 20 µM (CALCR): 14.1%
inhibition at 20 µM (MC3R): 19.7%
inhibition at 20 µM (CCR6): 58.2%
inhibition at 20 µM (MCHR2): 21.4%
inhibition at 20 µM (BDKRB1): 26.2%
inhibition at 20 µM (CHRM2): 36.7%
